From EPA's ToxValDB 9.5

Test system: Rattus norvegicus
Details: oral
[1] = chronic, duration: 14 weeks, M, Sprague-Dawley, Hematological: 45% increase in non-segmented neutrophils
[2] = chronic, duration: 104 weeks, F, Sprague-Dawley, Body Weight: 14% reduction in final body weight
[3] = chronic, duration: 104 weeks, M, Sprague-Dawley, Hepatic: Hepatocellular hypertrophy at ?0.1 mg/kg/day / single cell necrosis and cystic degeneration at […]
[4] = developmental, duration: 20 days, Sprague-Dawley, Developmental: Reduced serum T4 in pups at 1 mg/kg/day / approximately 60% survival at weaning versus 80% in controls at 2 mg/kg/day
[5] = developmental, duration: 21 days, F, Sprague-Dawley, Developmental: ~30% increased locomotor activity and concurrent failure to habituate to test environment in male pups on PND 17
[6] = reproduction developmental, duration: 19 days, F, Sprague-Dawley, Body Weight: Decreased mean body weight gain, 10% at 2 mg/kg/day and 33% at 5 mg/kg/day
[7] = reproduction developmental, duration: 67 days, F, Sprague-Dawley, Body Weight: 22% reduction in body weight gain during premating / food consumption reduced […]
[8] = reproduction developmental, duration: 84 days, M/F, Sprague-Dawley, Body Weight: >10% reduction in body weight
[9] = short-term, duration: 28 days, F, Sprague-Dawley, Hematological: Decreased red blood cells (8.9%), hemoglobin (10%), hematocrit (8.8%)
[10] = short-term, duration: 28 days, M/F, Sprague-Dawley, Endocrine: Decreased T4 level (82% in males / 48% in females)

O=S(=O)([O-])C(F)(F)C(F)(F)C(F)(F)C(F)(F)C(F)(F)C(F)(F)C(F)(F)C(F)(F)F.[K+] [Potassium perfluorooctanesulfonate]
LOAEL (acute, duration: 1 days, F, Sprague-Dawley, Endocrine: Transient decrease in serum TT4 (24, 38, and 53% after 2, 6, and 24 hours, respectively)): 15 mg/kg-day
NOAEL (acute, duration: 1 days, M, Sprague-Dawley): 10.3 mg/kg-day
NOAEL (chronic, duration: 14 weeks, F, Sprague-Dawley, Immunotoxicological: No histological alterations + Neurological: No histological alterations): 1.56 mg/kg-day
LOAEL [1]: 1.33 mg/kg-day
NOAEL [1]: 0.34 mg/kg-day
NOAEL (chronic, duration: 14 weeks, M, Sprague-Dawley, Hepatic: Increased absolute and relative liver weight / increased serum ALT / hepatocyte hypertrophy and vacuolation at 1.33/1.55 mg/kg/…): 1.33 mg/kg-day
LOAEL [2]: 1.04 mg/kg-day
NOAEL [2]: 0.25 mg/kg-day
NOAEL (chronic, duration: 104 weeks, M/F, Sprague-Dawley, Immunotoxicological: No histological alterations + Neurological: No histological alterations + Reproductive: No histological alterations): 1.04 mg/kg-day
LOAEL [3]: 1.04 mg/kg-day
NOAEL [3]: 0.25 mg/kg-day
LOAEL (chronic, duration: 91 days, M, Sprague-Dawley, Endocrine: 42% decrease in total T4 levels): 0.27 mg/kg-day
LOAEL (developmental, duration: 2 days, F, Sprague-Dawley, Developmental: Decreased neonatal survival (82% of controls on PND 1)): 25 mg/kg-day
LOAEL (developmental, duration: 2 days, F, Sprague-Dawley, Developmental: Increased neonatal mortality): 25 mg/kg-day
LOAEL (developmental, duration: 4 days, Sprague-Dawley, Body Weight: Weight loss during treatment when treated on GDs 2-5 (22%) or 6-9 (17%) + Developmental: Decreased neonatal survival (90% …): 25 mg/kg-day
LOAEL (developmental, duration: 19 days, F, Sprague-Dawley, Developmental: Increased incidences of cleft palate): 10 mg/kg-day
LOAEL [4]: 2 mg/kg-day
NOAEL [4]: 1 mg/kg-day
NOAEL (developmental, duration: 21 days, F, Sprague-Dawley): 1 mg/kg-day
LOAEL (developmental, duration: 21 days, F, Sprague-Dawley, Developmental: 2.1-fold increased fetal thyroid cell proliferation on GD 20): 1 mg/kg-day
LOAEL [5]: 1 mg/kg-day
NOAEL [5]: 0.3 mg/kg-day
LOAEL (developmental, duration: 67 days, F, Sprague-Dawley, >10% decrease in mean pup weight per litter on PND 5 at ?0.4 mg/kg/day / ~50% decrease mean pup survival per litter on PND 5 at ?1.6 mg/kg/…): 1.6 mg/kg-day
LOAEL (developmental, duration: 67 days, F, Sprague-Dawley, Developmental: >10% decrease in mean pup weight per litter on PND 5 at ?0.4 mg/kg/day / ~50% decrease mean pup survival per litter on PND 5…): 0.4 mg/kg-day
NOAEL (developmental, duration: 84 days, M/F, Sprague-Dawley, Developmental: Delayed eye opening and transient decrease in F2 pup body weight (13%) on LDs 7-14 at ?0.4 mg/kg/day / decreased pup …): 0.1 mg/kg-day
LOAEL (developmental, duration: 90 days, F, Sprague-Dawley, Increased pup mortality during PNDs 1-4): 1.6 mg/kg-day
LOAEL (developmental, duration: 91 days, F, Sprague-Dawley, Developmental: 19-36% reduced serum T4 levels in pups on PNDs 21-35 after gestationand/or postnatal-only exposure): 3.2 mg/kg-day
NOAEL (reproduction developmental, duration: 19 days, F, Sprague-Dawley): 10 mg/kg-day
LOAEL [6]: 2 mg/kg-day
NOAEL [6]: 1 mg/kg-day
LOAEL (reproduction developmental, duration: 19 days, F, Sprague-Dawley, Endocrine: Reduced total and free T4 and T3): 1 mg/kg-day
LOAEL [7]: 2 mg/kg-day
NOAEL [7]: 1.6 mg/kg-day
LOAEL [8]: 3.2 mg/kg-day
NOAEL [8]: 1.6 mg/kg-day
NOAEL (reproduction developmental, duration: 84 days, M/F, Sprague-Dawley, Reproductive: No alterations in mating and fertility parameters): 3.2 mg/kg-day
NOAEL (short-term, duration: 4 weeks, F, Sprague-Dawley, Immunotoxicological: No histological alterations + Neurological: No histological alterations): 1.77 mg/kg-day
NOAEL (short-term, duration: 4 weeks, M, Sprague-Dawley, Reproductive: No histological alterations): 1.51 mg/kg-day
NOAEL (short-term, duration: 7 days, M, Sprague-Dawley, Hepatic: Decreased serum cholesterol (38%) and triglyceride (55%) levels at 8.17 mg/kg/day): 8.17 mg/kg-day
NOAEL (short-term, duration: 7 days, M, Sprague-Dawley, Hepatic: Hepatocellular hypertrophy, increased liver weight, decreased serum cholesterol at ?1.79 mg/kg/day): 8.96 mg/kg-day
NOAEL (short-term, duration: 7 days, M, Wistar, Hepatic: 40% increase in absolute liver weight): 15 mg/kg-day
LOAEL [9]: 7.01 mg/kg-day
NOAEL [9]: 3.47 mg/kg-day
LOAEL [10]: 1.23 mg/kg-day
NOAEL [10]: 0.14 mg/kg-day
NOAEL (short-term, duration: 28 days, M, Sprague-Dawley, Hepatic: Hepatocellular hypertrophy and decreased serum cholesterol levels at ?1.54 mg/kg/day): 7.34 mg/kg-day
NOAEL (short-term, duration: 28 days, M, Sprague-Dawley, Hepatic: Increased relative liver weight / hepatocellular hypertrophy in males at 5.89 mg/kg/day): 5.89 mg/kg-day
NOAEL (subchronic, duration: 67 days, F, Sprague-Dawley, Hepatic: 16% reduction in serum total cholesterol on PND 5 at ?0.4 mg/kg/day / increased liver weight in dams at ?0.8 mg/kg/day + …): 2 mg/kg-day
